Results on eight compounds are retold here after ChEMBL document CHEMBL5465560, “Selectivity Literature for EUbOPEN Chemogenomic Library” (2024).

The target in assay [1] is Mitogen-activated protein kinase kinase kinase 9 (Homo sapiens) (UniProt P80192). Put plainly: Selectivity interaction (Kinase panel (Z-LYTE Assay)) EUB0001632a MAP3K9. The note with it: at 10 µM.
Assay [2] has as its target T1, Serine/threonine-protein kinase DCLK1 (Homo sapiens) (UniProt O15075).
T1 sequence (whole entry): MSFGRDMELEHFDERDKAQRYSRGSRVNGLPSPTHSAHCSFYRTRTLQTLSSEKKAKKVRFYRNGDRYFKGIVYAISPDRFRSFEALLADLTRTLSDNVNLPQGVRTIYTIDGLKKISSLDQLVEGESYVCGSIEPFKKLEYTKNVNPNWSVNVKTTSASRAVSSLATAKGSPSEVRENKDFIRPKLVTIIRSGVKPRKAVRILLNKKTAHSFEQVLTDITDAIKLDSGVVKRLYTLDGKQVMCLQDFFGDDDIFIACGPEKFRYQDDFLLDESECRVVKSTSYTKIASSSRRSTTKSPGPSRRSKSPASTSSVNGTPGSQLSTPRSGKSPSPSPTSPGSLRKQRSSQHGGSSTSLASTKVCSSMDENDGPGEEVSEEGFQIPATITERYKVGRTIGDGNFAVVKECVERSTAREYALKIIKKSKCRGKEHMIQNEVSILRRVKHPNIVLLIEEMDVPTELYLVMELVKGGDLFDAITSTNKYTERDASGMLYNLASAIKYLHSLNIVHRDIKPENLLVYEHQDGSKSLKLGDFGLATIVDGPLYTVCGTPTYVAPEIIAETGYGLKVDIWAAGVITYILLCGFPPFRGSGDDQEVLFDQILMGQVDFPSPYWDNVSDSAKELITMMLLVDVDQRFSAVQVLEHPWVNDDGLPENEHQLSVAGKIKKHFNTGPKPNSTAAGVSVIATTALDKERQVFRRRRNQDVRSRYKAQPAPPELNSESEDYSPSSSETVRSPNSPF
Put plainly: Selectivity interaction (KinomeScan (DiscoverX)) EUB0000666a DCLK1. The note with it: at 10 µM.

Assay [3] has as its target T2, Inhibitor of nuclear factor kappa-B kinase subunit epsilon (Homo sapiens) (UniProt Q14164).
T2 sequence (whole entry): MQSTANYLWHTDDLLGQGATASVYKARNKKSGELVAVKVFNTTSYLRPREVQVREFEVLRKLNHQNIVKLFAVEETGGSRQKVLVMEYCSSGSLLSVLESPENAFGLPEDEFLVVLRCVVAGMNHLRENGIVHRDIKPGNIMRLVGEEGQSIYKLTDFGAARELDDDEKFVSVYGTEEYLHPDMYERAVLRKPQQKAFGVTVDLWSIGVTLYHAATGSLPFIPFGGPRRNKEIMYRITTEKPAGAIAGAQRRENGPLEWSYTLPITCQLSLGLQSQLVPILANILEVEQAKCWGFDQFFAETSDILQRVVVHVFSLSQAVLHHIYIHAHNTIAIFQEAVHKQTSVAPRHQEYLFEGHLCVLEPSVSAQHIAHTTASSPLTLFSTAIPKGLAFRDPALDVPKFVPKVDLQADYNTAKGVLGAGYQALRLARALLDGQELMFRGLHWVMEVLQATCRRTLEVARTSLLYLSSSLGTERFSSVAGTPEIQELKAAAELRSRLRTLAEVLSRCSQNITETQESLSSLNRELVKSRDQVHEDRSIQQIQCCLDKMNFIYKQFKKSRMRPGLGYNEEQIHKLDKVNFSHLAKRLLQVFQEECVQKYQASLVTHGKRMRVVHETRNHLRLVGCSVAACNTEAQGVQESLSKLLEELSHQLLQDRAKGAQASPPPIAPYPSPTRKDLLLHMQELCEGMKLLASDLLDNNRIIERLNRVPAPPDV
The note with it: at 10 µM.

Assay [4] relates to Epidermal growth factor receptor (Homo sapiens), P00533 [UNDEFINED MUTATION]. Put plainly: Selectivity interaction (KinomeScan (DiscoverX)) EUB0000045b EGFR. The note with it: at 1 µM.
The target of assay [5] is Phosphatidylinositol 4,5-bisphosphate 3-kinase catalytic subunit beta isoform (Homo sapiens) (UniProt P42338). The experiment in a line: Selectivity interaction (Kinase panel (literature)) EUB0001199aCl PIK3CB. The note with it: at 1 µM.
The target in assay [6] is Casein kinase I isoform gamma-2 (Homo sapiens) (UniProt P78368). Put plainly: Selectivity interaction (KinomeScan (DiscoverX)) EUB0001049a CSNK1G2. The note with it: at 1 µM.
Assay [7] concerns the target Serine/threonine-protein kinase WNK3 (Homo sapiens) (UniProt Q9BYP7). Put plainly: Selectivity interaction (Upstate Kinase Profiler service (Millipore)) EUB0000056c WNK3. The note with it: at 1 µM.
In assay [8] the target is T3, Receptor-interacting serine/threonine-protein kinase 4 (Homo sapiens) (UniProt P57078).
T3 sequence (whole entry): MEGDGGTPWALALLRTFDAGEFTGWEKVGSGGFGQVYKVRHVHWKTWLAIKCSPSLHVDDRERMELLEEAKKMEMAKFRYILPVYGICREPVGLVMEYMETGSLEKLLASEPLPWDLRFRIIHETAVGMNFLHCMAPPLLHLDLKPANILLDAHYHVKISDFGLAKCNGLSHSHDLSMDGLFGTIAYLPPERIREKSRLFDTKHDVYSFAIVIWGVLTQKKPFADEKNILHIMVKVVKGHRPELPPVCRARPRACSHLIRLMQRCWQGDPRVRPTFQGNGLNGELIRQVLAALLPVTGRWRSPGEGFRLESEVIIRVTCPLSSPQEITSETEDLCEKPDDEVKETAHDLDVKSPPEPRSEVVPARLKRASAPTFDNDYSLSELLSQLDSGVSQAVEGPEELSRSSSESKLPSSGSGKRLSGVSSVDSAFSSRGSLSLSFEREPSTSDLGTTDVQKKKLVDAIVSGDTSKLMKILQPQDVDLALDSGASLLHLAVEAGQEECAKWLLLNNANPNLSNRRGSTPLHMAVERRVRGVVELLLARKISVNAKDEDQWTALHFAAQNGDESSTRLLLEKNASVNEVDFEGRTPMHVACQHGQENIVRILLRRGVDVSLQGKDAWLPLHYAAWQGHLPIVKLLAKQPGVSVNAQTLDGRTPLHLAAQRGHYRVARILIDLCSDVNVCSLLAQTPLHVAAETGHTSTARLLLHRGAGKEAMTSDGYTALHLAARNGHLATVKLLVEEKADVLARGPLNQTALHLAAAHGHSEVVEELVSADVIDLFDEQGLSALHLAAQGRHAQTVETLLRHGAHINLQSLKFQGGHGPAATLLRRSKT
Put plainly: Selectivity interaction (KinomeScan (DiscoverX)) EUB0001079a RIPK4. The note with it: at 1 µM.

Assay [9] addresses Serine/threonine-protein kinase PAK 1 (Homo sapiens) (UniProt Q13153). The experiment in a line: Selectivity interaction (KinomeScan (DiscoverX)) EUB0001079a PAK1. The note with it: at 1 µM.

Casein kinase I isoform gamma-2 (Homo sapiens), sequence (P78368 whole entry, looked up, canonical isoform): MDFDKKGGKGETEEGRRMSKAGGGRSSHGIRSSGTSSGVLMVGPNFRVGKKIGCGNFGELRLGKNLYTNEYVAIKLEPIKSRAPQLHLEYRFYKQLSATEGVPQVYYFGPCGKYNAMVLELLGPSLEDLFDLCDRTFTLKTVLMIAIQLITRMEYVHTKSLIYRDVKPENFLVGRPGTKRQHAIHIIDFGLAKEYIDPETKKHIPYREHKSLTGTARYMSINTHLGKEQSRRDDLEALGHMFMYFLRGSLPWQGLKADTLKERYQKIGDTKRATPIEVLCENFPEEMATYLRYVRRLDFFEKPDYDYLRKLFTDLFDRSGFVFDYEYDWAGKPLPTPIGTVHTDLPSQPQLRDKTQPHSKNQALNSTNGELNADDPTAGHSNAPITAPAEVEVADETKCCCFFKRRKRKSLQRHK
Phosphatidylinositol 4,5-bisphosphate 3-kinase catalytic subunit beta isoform (Homo sapiens), sequence (P42338 whole entry, looked up, canonical isoform): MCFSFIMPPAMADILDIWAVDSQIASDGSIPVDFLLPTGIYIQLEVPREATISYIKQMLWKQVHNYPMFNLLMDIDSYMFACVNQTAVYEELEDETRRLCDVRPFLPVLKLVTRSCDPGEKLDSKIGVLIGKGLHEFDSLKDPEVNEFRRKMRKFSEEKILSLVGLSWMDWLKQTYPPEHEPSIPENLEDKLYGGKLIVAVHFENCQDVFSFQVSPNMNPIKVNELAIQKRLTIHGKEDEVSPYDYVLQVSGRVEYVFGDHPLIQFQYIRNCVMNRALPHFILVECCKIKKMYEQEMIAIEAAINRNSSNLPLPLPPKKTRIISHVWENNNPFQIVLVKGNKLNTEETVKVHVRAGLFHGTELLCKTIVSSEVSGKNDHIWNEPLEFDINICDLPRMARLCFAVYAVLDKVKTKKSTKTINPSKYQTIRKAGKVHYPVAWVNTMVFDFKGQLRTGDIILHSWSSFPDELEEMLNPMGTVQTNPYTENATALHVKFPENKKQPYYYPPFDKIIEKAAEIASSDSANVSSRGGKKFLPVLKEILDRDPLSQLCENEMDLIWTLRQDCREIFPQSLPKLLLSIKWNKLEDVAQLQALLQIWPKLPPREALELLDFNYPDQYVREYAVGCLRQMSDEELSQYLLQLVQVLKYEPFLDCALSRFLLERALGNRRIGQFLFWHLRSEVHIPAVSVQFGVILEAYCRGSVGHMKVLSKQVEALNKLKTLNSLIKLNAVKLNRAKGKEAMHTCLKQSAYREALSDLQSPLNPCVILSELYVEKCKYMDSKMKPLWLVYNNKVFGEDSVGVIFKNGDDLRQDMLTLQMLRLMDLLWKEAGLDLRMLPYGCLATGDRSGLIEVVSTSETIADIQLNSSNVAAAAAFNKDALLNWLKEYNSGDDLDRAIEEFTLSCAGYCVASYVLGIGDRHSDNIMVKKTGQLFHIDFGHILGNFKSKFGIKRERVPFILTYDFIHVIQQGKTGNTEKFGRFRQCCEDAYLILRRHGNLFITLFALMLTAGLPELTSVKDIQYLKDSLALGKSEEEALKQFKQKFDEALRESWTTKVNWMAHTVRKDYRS
Serine/threonine-protein kinase WNK3 (Homo sapiens), sequence (Q9BYP7 whole entry): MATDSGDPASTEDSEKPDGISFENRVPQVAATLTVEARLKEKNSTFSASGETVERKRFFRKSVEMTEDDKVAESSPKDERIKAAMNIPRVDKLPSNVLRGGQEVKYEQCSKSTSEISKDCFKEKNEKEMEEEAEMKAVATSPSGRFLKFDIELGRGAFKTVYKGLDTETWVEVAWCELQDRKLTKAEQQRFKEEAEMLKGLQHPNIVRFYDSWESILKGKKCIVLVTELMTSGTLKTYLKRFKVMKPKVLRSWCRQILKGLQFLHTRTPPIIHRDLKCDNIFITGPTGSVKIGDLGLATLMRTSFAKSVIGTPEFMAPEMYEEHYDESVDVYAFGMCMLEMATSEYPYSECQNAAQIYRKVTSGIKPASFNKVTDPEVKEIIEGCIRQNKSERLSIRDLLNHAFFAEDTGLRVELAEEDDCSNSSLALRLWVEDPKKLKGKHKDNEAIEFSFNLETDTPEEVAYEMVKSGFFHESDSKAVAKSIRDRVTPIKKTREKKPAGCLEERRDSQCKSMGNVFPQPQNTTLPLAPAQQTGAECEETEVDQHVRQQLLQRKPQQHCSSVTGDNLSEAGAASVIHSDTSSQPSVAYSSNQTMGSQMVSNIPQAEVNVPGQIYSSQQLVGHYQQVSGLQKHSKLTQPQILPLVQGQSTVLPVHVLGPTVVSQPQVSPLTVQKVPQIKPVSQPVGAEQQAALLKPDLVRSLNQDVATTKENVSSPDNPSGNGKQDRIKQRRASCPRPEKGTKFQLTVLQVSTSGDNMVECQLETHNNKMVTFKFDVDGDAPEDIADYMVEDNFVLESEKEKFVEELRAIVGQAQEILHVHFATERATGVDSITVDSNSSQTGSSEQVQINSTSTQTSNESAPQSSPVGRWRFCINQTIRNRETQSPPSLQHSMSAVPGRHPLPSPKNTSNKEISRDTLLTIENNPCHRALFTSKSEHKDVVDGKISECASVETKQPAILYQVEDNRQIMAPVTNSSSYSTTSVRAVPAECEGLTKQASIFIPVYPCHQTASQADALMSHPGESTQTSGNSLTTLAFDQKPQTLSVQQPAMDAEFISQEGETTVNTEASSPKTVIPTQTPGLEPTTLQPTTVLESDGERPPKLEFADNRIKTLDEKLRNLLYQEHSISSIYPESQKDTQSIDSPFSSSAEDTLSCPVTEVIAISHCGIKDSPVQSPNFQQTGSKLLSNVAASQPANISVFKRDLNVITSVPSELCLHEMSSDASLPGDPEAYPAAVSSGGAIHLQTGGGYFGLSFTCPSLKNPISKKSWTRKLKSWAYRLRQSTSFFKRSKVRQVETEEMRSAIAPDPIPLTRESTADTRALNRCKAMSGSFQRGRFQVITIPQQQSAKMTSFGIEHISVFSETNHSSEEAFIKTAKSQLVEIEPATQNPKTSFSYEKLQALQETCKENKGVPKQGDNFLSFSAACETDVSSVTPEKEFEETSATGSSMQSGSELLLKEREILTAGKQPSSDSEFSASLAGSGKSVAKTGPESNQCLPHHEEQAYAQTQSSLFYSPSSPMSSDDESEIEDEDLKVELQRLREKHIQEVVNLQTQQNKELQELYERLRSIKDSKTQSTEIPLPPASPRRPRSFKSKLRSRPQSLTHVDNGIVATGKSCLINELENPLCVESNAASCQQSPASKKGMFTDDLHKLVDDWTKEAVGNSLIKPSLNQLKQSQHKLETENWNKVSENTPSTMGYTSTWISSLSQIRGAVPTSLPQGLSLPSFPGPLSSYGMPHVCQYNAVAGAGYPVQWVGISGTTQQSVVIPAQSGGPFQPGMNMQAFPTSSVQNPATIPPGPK
Epidermal growth factor receptor (Homo sapiens), P00533 [UNDEFINED MUTATION], sequence (P00533 whole entry, looked up, change not shown, canonical isoform): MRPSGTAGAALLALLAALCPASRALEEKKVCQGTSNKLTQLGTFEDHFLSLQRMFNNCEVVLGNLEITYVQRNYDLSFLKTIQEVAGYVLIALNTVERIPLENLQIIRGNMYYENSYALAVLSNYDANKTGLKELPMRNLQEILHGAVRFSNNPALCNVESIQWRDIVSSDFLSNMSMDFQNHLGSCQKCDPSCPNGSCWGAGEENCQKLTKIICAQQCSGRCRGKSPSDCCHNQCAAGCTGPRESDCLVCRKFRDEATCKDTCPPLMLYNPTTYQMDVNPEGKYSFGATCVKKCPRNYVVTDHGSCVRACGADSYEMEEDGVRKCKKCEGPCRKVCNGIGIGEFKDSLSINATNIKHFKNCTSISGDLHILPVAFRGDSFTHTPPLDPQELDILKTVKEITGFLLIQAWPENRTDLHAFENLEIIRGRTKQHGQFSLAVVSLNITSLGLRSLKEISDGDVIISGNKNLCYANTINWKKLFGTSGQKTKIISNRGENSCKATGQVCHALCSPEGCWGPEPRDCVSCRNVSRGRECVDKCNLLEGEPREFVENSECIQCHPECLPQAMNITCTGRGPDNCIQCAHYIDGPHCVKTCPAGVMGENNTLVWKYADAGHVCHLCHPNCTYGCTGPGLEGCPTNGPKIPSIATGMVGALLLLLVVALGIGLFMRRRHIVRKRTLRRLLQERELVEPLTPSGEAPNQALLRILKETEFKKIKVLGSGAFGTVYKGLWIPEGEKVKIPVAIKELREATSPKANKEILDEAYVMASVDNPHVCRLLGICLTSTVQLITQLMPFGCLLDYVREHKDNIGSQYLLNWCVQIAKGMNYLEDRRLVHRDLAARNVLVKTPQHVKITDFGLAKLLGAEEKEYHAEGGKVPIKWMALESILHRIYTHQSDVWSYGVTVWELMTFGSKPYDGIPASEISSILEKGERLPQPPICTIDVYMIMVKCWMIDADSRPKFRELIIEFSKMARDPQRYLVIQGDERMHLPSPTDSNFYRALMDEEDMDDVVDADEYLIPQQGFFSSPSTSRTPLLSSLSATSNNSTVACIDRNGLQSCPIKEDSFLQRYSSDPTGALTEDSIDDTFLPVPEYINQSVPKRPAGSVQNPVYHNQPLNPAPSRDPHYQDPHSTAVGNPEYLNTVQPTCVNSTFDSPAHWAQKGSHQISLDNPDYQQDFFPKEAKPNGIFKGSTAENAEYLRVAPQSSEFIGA
Serine/threonine-protein kinase PAK 1 (Homo sapiens), sequence (Q13153 whole entry): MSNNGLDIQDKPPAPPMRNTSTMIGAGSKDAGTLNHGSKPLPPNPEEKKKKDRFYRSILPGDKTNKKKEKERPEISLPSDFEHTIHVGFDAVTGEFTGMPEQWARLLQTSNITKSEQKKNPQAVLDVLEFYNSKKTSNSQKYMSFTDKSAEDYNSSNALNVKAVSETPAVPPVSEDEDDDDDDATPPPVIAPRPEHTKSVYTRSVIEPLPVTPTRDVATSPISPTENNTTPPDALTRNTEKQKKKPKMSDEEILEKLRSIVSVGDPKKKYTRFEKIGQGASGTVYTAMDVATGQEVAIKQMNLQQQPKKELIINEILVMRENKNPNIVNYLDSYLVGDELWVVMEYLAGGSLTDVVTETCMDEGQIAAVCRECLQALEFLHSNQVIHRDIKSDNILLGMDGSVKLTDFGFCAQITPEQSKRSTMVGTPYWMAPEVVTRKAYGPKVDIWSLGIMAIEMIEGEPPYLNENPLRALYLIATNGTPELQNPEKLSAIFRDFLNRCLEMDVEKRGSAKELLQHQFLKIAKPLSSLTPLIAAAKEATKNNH

In the case of `Cn1cc(-n2cnc3c(NCc4nc5cc(Cl)c(Cl)cc5[nH]4)nc(N4CCOCC4)nc32)cn1`, in [1], the % of control was -5.34%. For `O=C(NOC[C@H](O)CO)c1ccc(F)c(F)c1Nc1ccc(I)cc1F`, in [2], the % of control was found to be 100%. Turning to `Cc1cc([C@@H](C)Nc2ccccc2C(=O)O)c2nc(N3CCOCC3)cc(=O)n2c1` [AZD-6482], the % of control in assay [3] amounted to 85%. Turning to `C=CC(=O)Nc1cc(-n2c(=O)ccc3cnc4ccc(-c5ccc(NS(C)(=O)=O)cc5)cc4c32)ccc1C`, the % of control in assay [4] was 89%.

On to `CN1Cc2nccc(-c3cn(C)nc3-c3ccc(F)cc3)c2C1=O`, for which the % of inhibition in assay [5] came to 1%. Turning to `COc1cc(Nc2nc(C)cc(-c3cnn4nc(OC)ccc34)n2)cc(C(F)(F)F)c1`, the % of control in assay [6] was 97%. On to `Cc1ccc(-c2ccc3c(ccc4sc5c(c43)NC[C@@H](C)NC5=O)n2)cn1`, for which, in assay [7], the % of inhibition is -1%. For `Nc1cnc(N2CCc3cc(S(=O)(=O)Nc4c(F)cc(Cl)cc4F)cc(N4CCCC4=O)c32)nc1` [TP-020n], the % of control in assay [8] stood at 76%; in assay [9], 89%.
